Results published in US20100074897A1, “Methods and Compositions related to HIF-1 alpha” (University of Utah Research Foundation, priority 2006, published 2010).

Experiments:
[1] = test system: NBS1; experiment: NBS1 mRNA levels by real-time PCR in HCT116 cells; type: cell-based, human; conditions: siRNA, hypoxia 1% O2 16 h
Description: HCT116 TP53^+/+, HCT116 TP53^−/− cells (Koshiji et al., 2004), and U-2 OS were grown in McCoy's 5A medium (Invitrogen), and HeLa cells in DMEM. For hypoxic treatment, cells were incubated in a hypoxic chamber (Innova CO-48, New Brunswick Scientific) maintaining 1% O2 and 5% CO2. Recombinant adenovirus generation and infection were as previously described (Koshiji et al., 2004).
Total RNA extraction, reverse transcription, and quantitative PCR were performed essentially as described previously (Koshiji et al., 2005). Taqman Gene Expression Assay kits for NBS1, MRE11A, RAD50, MSH2, and ACTB were purchased from Applied Biosystems. All experiments were repeated three times in triplicates, and representative results were presented as means±standard errors.

[2] = test system: HIF-1α; experiment: Western blot after siRNA transfection of HCT116 cells; type: cell-based, human
Description: (§1) Western Blot. Western blot analysis was carried out as described previously.
(§2) RNA Interference. Transfection with siRNA duplexes and siRNA sequence information were described previously (Koshiji et al. 2005). CHK1 siRNA was described previously (Zhao et al. 2002). Luciferase siRNA was used as negative control.

[3] = test system: HIF-2α; experiment: as above; type: cell-based, human
Description: as §1, §2

[4] = test system: CDC25A promoter; experiment: CDC25A reporter (luciferase) assay in HCT116 cells; type: cell-based, human; conditions: hypoxia
Description: Reporter Assay. Reporter assays were conducted as described previously (Huang et al. 2002). The Myc effect on the reporter was examined by cotransfection with 0.4 μg pMyc (Koshiji et al. 2004a) or as specified.

[5] = test system: CDC25A; experiment: CDC25A and PGK1 mRNA by real-time RT-PCR in siRNA-transfected HCT116 cells; type: cell-based, human; conditions: siRNA 24 h then hypoxia 16 h
Description: Real-Time RT-PCR. Real-time RT-PCR was performed essentially as described previously (Koshiji et al. 2005). Primer and probe (Applied Biosystems) sequences were as follows: CDC25A, forward 5′-[…]-3′ (SEQ ID NO: 25), reverse 5′-[…]-3′ (SEQ ID NO: 26), probe 5′-FAM-[…]-MGB-3′ (SEQ ID NO: 27). PGK-1 (FAM-MGB probe) and ACTB (VIC-MGB probe) were detected with endogenous control reagents from Applied Biosystems. β-actin primers and probe were included into each reaction for normalization. All the experiments were repeated three times in triplicate, and representative results were presented in mean±standard error.
as §2

[6] = test system: U-2 OS cells; experiment: immunofluorescent staining of γ-H2AX foci (DNA DSBs); type: cell-based; conditions: U-2 OS cells transiently expressing PAS-B variants
Description: To ascertain the functional relevance of NBS1 repression by hypoxia, the extent of DNA damage was assessed by immunofluorescent staining of γ-H2AX foci, a most sensitive method for quantifying DNA DSBs (Rogakou et al, 1998, 1999). […] Furthermore, results also show strikingly colocalized foci of γ-H2AX and 53BP1, the latter of which is known to interact with various DNA repair proteins including γ-H2AX in response to DSBs (Schultz et al, 2000). Thus, hypoxic cells experience DNA DSBs, presumably resulting from the NBS1 repression.
Immunofluorescence staining was performed essentially as described previously (Rogakou et al, 1999) with mouse anti-γ-H2AX antibody (Upstate) and rabbit anti-53BP1 (Novus Biologicals). Secondary antibodies were anti-mouse Alexa-546 and anti-rabbit Alexa-488 (Molecular Probes). Samples were mounted in antifade media, and were examined by fluorescent and laser-scanning confocal microscopy with a Nikon PCM 2000.

[7] = molecular target: T1, Sp1 (Oryctolagus cuniculus, UniProt G1SL61); experiment: anti-Sp1 immunoprecipitation of in vitro translated products; type: binding, rabbit; conditions: translated in rabbit reticulocyte lysate
T1 construct: from tissue; host or cells: rabbit reticulocyte lysate (in vitro translation system)
Description: Previously, it was shown that Myc displacement is mediated by the N-terminal HIF-1α (1-329), which competes with Myc for Sp1 binding in the MSH2 promoter (Koshiji et al, 2005). […] […] […] Of note, removal of part of the PAS-B from the C terminus (codon 299-329) destroyed Sp1 binding.
Immunoprecipitations and Western blot was performed essentially as described previously (Huang et al., 1998; Koshiji et al., 2005). In vitro translation and immunoprecipitations are described as before (Gu et al., 2001; Koshiji et al., 2005). […]

[8] = test system: U-2 OS cells; experiment: anchorage-independent growth on soft agar; type: cell-based; conditions: retrovirally infected U-2 OS cells
Description: (§3) A, retrovirally infected HCT116 cells expressing EYFP, HIF-1α PAS-B, and mutant were assayed for Matrigel invasion. Images of cells on the membrane side were taken 24 h later. B, U-2 OS cells infected as above were assayed for anchorage-independent growth on soft agar. HIF-1α PAS-B expressed cells gave rise to formation of colonies 40 times more than others. HCT116 cells (known to grow on soft agar) were used as a positive control. Mock, uninfected cells.

[9] = test system: HCT116 cells; experiment: Matrigel invasion; type: cell-based, human; conditions: retrovirally infected HCT116 cells, 24 h
Description: as §3

[10] = test system: U-2 OS cells; experiment: tumor formation in a xenografted mouse model; type: in vivo; conditions: athymic mice, subcutaneous injection of 1 million U-2 OS cells, within three weeks
Excerpt: Female BALB/c-nu/nu mice were subjected to bilateral, subcutaneous injections in the back with 1 million of U-2 OS cells, or those expressing EYFP, HIF-1α PAS-B, or the HIF-1α PAS-B mutant. A total of ten mice were divided into two groups with one type of cells injected on one side and another on the other side.

[11] = test system: NBS1; experiment: NBS1 protein levels by immunoblot in U-2 OS cells expressing PAS-B variants; type: cell-based; conditions: forced expression in U-2 OS cells
Description: Immunoprecipitations and Western blot was performed essentially as described previously (Huang et al., 1998; Koshiji et al., 2005). In vitro translation and immunoprecipitations are described as before (Gu et al., 2001; Koshiji et al., 2005). The wheat germ extract system was purchased from Promega. λ protein phosphatase (New England Biolabs) and resveratrol (Sigma) with indicated concentrations were added to the in vitro translated products before immunoprecipitations.
U-2 OS cells were transfected with the Nucleofector system (Amaxa). Briefly, 1×10^6 cells were suspended in 100 μl pre-warmed Nucleofector Solution Kit V containing 2 μg plasmids. After electroporation the cells were transferred immediately into pre-warmed complete McCoy's 5A medium and seeded in 6-well plates. Cells were harvested 48 h after transfection.

[12] = test system: β-catenin; experiment: immunoblotting of epithelial marker in retrovirally infected U-2 OS cells; type: cell-based
Description: A, Cells as indicated were infected by retroviruses expressing EYFP, EYFP-PAS-B fusion, and EYFP-PAS-B mutant. […] B, U-2 OS and those infected with retroviruses as above were analyzed by immunoblotting individual protein expression as indicated.

[13] = molecular target: synthetic peptide corresponding to HIF-1α residues 299-329
[14] = molecular target: synthetic peptide harboring HIF-2α T324V mutation
[15] = molecular target: synthetic peptide including HIF-2α residues 314-331

T1 sequence (G1SL61 1-788): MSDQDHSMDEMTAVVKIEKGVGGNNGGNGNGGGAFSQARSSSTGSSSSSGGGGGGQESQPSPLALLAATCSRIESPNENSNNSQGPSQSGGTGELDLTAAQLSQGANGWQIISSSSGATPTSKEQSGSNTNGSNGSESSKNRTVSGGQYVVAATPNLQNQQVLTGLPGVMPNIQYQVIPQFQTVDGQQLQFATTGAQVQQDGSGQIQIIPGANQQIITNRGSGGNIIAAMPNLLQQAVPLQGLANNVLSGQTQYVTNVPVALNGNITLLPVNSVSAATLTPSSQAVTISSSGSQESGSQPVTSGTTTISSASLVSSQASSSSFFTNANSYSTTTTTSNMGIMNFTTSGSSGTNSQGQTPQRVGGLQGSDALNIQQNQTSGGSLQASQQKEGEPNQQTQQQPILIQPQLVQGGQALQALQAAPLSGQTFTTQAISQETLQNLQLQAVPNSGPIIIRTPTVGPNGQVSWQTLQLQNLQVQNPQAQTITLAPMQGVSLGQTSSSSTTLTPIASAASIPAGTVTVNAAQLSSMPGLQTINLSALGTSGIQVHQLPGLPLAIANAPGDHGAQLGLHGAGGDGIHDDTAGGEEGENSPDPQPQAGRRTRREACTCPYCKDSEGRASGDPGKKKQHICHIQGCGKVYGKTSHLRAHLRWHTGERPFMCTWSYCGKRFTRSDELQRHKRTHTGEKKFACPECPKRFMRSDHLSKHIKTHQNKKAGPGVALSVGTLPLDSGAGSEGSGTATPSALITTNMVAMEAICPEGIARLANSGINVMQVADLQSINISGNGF

Molecule: 5′-AACTGATGACCAGCAACTTGA-3′ [HIF1A siRNA]
- effect on NBS1 and MSH2 downregulation and PGK1 upregulation in hypoxic cells [1]: abrogated
- decrease of HIF-1α protein levels [2]: > 80%
- HIF-2α levels [3]: remained unaffected
- hypoxic inhibition of CDC25A reporter expression [4]: abrogated
- effect on hypoxic CDC25A down-regulation and PGK1 up-regulation [5]: effectively blocked the CDC25A down-regulation

Molecule: PAS1B: HIF-1α PAS-B domain (codon 194-329)
- γ-H2AX foci colocalized with 53BP1 [6]: significantly increased
- Sp1 binding [7]: sufficient for Sp1 interaction
- formation of colonies on soft agar relative to others [8]: 40 times
- invasiveness versus controls [9]: much more invasive
- tumor nodules formation [10]: formed tumor nodules
- NBS1 protein levels [11]: sufficient to eliminate NBS1 protein levels
- β-catenin protein expression [12]: marked decrease

B1: recombinant PKD1 (Upstate Biotechnology) (protein)
chain: MSAPPVLRPPSPLLPVAAAAAAAAAALVPGSGPGPAPFLAPVAAPVGGISFHLQIGLSREPVLLLQDSSGDYSLAHVREMACSIVDQKFPECGFYGMYDKILLFRHDPTSENILQLVKAASDIQEGDLIEVVLSASATFEDFQIRPHALFVHSYRAPAFCDHCGEMLWGLVRQGLKCEGCGLNYHKRCAFKIPNNCSGVRRRRLSNVSLTGVSTIRTSSAELSTSAPDEPLLQKSPSESFIGREKRSNSQSYIGRPIHLDKILMSKVKVPHTFVIHSYTRPTVCQYCKKLLKGLFRQGLQCKDCRFNCHKRCAPKVPNNCLGEVTINGDLLSPGAESDVVMEEGSDDNDSERNSGLMDDMEEAMVQDAEMAMAECQNDSGEMQDPDPDHEDANRTISPSTSNNIPLMRVVQSVKHTKRKSSTVMKEGWMVHYTSKDTLRKRHYWRLDSKCITLFQNDTGSRYYKEIPLSEILSLEPVKTSALIPNGANPHCFEITTANVVYYVGENVVNPSSPSPNNSVLTSGVGADVARMWEIAIQHALMPVIPKGSSVGTGTNLHRDISVSISVSNCQIQENVDISTVYQIFPDEVLGSGQFGIVYGGKHRKTGRDVAIKIIDKLRFPTKQESQLRNEVAILQNLHHPGVVNLECMFETPERVFVVMEKLHGDMLEMILSSEKGRLPEHITKFLITQILVALRHLHFKNIVHCDLKPENVLLASADPFPQVKLCDFGFARIIGEKSFRRSVVGTPAYLAPEVLRNKGYNRSLDMWSVGVIIYVSLSGTFPFNEDEDIHDQIQNAAFMYPPNPWKEISHEAIDLINNLLQVKMRKRYSVDKTLSHPWLQDYQTWLDLRELECKIGERYITHESDDLRWEKYAGEQGLQYPTHLINPSASHSDTPETEETEMKALGERVSIL
- PKD1-mediated phosphorylation in an in vitro kinase assay (c.p.m.) [13]: a HIF-2α peptide, but not its HIF-1α counterpart, was robustly phosphorylated
- PKD1-mediated phosphorylation in an in vitro kinase assay (c.p.m.) [14]: replacement of Thr-324 with valine abolished phosphorylation
- PKD1-mediated phosphorylation in an in vitro kinase assay (c.p.m.) [15]: a HIF-2α peptide, but not its HIF-1α counterpart, was robustly phosphorylated
